{"source": "ChEMBL document CHEMBL3046532", "about": "“QSAR analysis on PfPK7 inhibitors using HQSAR, CoMFA, and CoMSIA” (Med Chem Res, 2012)", "data": [{"target": "T1, Putative uncharacterized protein pk7 (Plasmodium falciparum, UniProt O96214)", "T1 sequence (O96214 whole entry)": "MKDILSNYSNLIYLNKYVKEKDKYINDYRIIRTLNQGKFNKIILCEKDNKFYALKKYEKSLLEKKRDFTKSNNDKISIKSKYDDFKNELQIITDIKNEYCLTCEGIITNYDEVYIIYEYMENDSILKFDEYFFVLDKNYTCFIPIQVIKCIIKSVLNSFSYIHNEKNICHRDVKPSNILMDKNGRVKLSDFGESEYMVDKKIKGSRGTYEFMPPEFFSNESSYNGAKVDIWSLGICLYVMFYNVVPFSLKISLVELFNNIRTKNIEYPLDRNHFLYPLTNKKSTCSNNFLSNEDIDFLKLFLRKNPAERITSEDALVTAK", "assay": "Inhibition of Plasmodium falciparum protein kinase 7", "units": {"IC50": "µM"}, "values": [{"smiles": "CN(Cc1ccc(F)nc1)c1ccc2ncc(-c3ccc(C(N)=O)cc3)n2n1", "IC50": 1.1}, {"smiles": "CN(Cc1ccc(F)nc1)c1ccc2ncc(-c3ccc(C#N)cc3)n2n1", "IC50": 1.07}, {"smiles": "CN(Cc1ccc(F)nc1)c1ccc2ncc(-c3ccc(N)cc3)n2n1", "IC50": 42}, {"smiles": "CN(Cc1ccc(F)nc1)c1ccc2ncc(-c3ccc(CNCO)cc3)n2n1", "IC50": 34}, {"smiles": "CN(Cc1ccc(F)nc1)c1ccc2ncc(-c3ccc(CO)cc3)n2n1", "IC50": 21}, {"smiles": "CN(Cc1ccc(F)nc1)c1ccc2ncc(-c3ccc(Cn4ccnc4)cc3)n2n1", "IC50": 56}, {"smiles": "N#Cc1ccc(-c2cnc3ccc(N[C@H]4CCCNC4)nn23)cc1", "IC50": 2.1}, {"smiles": "CN(Cc1ccc(F)nc1)c1ccc2ncc(-c3ccc(CN4CCC(O)CC4)cc3)n2n1", "IC50": 103}]}]}
